Assay results from patent US8536139B2, “Compositions comprising lipoteichoic acid for use in treating pleural effusion or pneumothorax” (ISIS Innovation Limited, priority 2007, dated 2013).
Where “and” joins values, the source holds several entries; their conditions need not be identical. Equal values may be shown once.

How the values were obtained:
Type in all cases: in vivo, human
[1] = system: adults with histocytologically proven malignant pleural effusion; assay: Phase I/IIa trial of intrapleural LTA-T: dose escalation and toxicity
From the text: The study was a phase I/IIa toxicity/non-randomised “proof of concept” efficacy trial. The protocol included administration of an intrapleural saline control followed by seven days pleural fluid production measurement prior to the administration of LTA-T to allow the assessment of any side-effects from LTA-T administration, and both acute pleural fluid production changes and the frequency of long-term pleurodesis efficacy after intrapleural LTA-T (see FIG. 1).
The subjects were adults (aged≧18) with histocytologically proven malignant pleural effusion requiring symptomatic treatment.
(§1) After informed consent, an indwelling pleural catheter (PleurX, Denver, Colo.) was placed in the pleural effusion and the pleural space fully drained. Markers of toxicity (clinical symptoms, blood parameters, performance status) were recorded daily on the first 14 days of the study and at intervals thereafter (FIG. 1).
After initial complete fluid drainage, 30 mls intra-pleural saline (saline control) was administered (day 1). The daily pleural fluid drainage was then recorded for seven days to quantify the rate of production of pleural fluid. On day seven, subjects received a single intra-pleural injection of LTA-T, according to the dosing schedule (table 1). The starting dose was 250 mcg. Patients remained in hospital for one night following LTA-T administration in a respiratory unit equipped for the care of acute respiratory failure to permit immediate adverse event monitoring.
(§2) Patient symptoms, performance status, radiographic pleural fluid recurrence (chest radiograph), adverse events and the clinical need for further pleural fluid drainage was assessed on days 22, 43, 64, 85. Where further fluid drainage was required, the time from the administration of LTA-T to first drainage was recorded. Those with recurrent pleural fluid were offered sterile talc pleurodesis (as standard care). All patients were followed up to death.

[2] = system: malignant pleural effusion; assay: Long-term pleural fluid control (pleurodesis success, need for late therapeutic drainage)
Protocol: Over the next 7 days (days 7-14), daily pleural fluid volume drainage and pleural fluid cytology for malignant cells was performed unless pleural fluid flow ceased. On day 14, the intra-pleural catheter was flushed and closed (but left in situ) and not used again for the duration of the study unless recurrent pleural fluid caused breathlessness requiring treatment by fluid drainage.
as §2
Long-term pleural fluid control was assessed by noting which patients required late therapeutic (>500 mls) pleural fluid drainage from their indwelling catheter in association with symptoms (excluding the subject not capable of achieving pleurodesis due to trapped lung). […] Between day 14 (when the indwelling catheter was first locked closed) and 1 month, 3 further patients received one therapeutic fluid drainage (pleurodesis success from day 14 9/12 (75%)). In those patients receiving a dose >750 mcg of intrapleural LTA-T, 6/7 required no therapeutic drainage at 1 month (86% pleurodesis success rate).

[3] = system: adults with histocytologically proven malignant pleural effusion; assay: Alveolar to arterial gradient in the partial pressure of oxygen (arterial blood gases breathing air)
From the text: Arterial blood gases breathing air were taken on days 1 and 3 of the first week (pre and post control saline), and on days 7 and 9 (pre and post LTA-T) to identify any impaired gas exchange (which is a problem with talc pleurodesis). The efficiency of lung oxygen exchange was quantified from the change in the alveolar to arterial gradient for the partial pressure of oxygen calculated from these blood gas samples, using standard methods.
(§3) Changes in continuous variables were compared to baseline using a paired t-test (SPSS version 12.0).

[4] = system: adults with histocytologically proven malignant pleural effusion; assay: Peripheral blood white cell count change 24 hours after intrapleural administration; conditions: 7 subjects receiving >750 mcg; p=0.016, paired t-test
Protocol: FIG. 3 illustrates the change in peripheral white cell count 24 hours after administration of intrapleural saline control or LTA-T, in all patients (FIG. 3a) and patients receiving 750 mcg LTA-T or more (FIG. 3b). Individual results are shown and mean and SD data for each group.
as §1, §3

## lipoteichoic acid T [LTA-T]
[1]; 750-1500 mcg intrapleural
  Toxicity at the therapeutic dose: mild with no consistent side effect profile
[1]; dose of 750 mcg to 1000 mcg
  Pain: almost no pain
[1]; individual patients, single intrapleural dose 250 mcg
  Side effects: mild fever and Nil and Mild chest pain 2 hours post administration
[1]; individual patients, single intrapleural dose 375 mcg
  Side effects: Nil (2×) and Mild headache and light headed 4 hours
[1]; individual patients, single intrapleural dose 750 mcg
  Side effects: Nil and Mild back pain on inspiration after LTA-T, and Nausea, vomiting and pyrexia for 3 days
[1]; individual patients, single intrapleural dose 1500 mcg
  Side effects: Nil
[1]; patient 10, 750 mcg, post LTA-T administration
  Raised inflammatory markers (CRP): inflammatory markers (CRP > 285).
[1]; patient 14, single intrapleural dose 3000 mcg
  Side effects: systemic inflammatory reaction
[1]; whole trial
  Blood parameter, performance status or respiratory status toxicities: No blood parameter, performance status or respiratory status toxicities were seen
[2]; 9/12, day 14 to 1 month, where pleurodesis technically achievable
  Pleurodesis success from day 14: 75%
[2]; 12/13 patients, trapped lung subject excluded
  Patients not requiring any further therapeutic pleural drainage beyond 1 month from trial entry: 92%
[2]; dose of 750 mcg to 1000 mcg
  Pleurodesis outcome: effective pleurodesis
[2]; patients receiving >750 mcg intrapleural, 6/7
  Pleurodesis success rate (no therapeutic drainage at 1 month): 86%
[3]; day 9, mean baseline (SD) 4.24 (2.92) kPa
  Alveolar to arterial gradient for the partial pressure of oxygen, post LTA-T, mean (SD): 4.88 (1.80) kPa
[3]; dose of 750 mcg to 1000 mcg
  Blood oxygen levels: no evidence of depressed blood oxygen levels
[3]; following LTA-T compared with saline control
  Change in the alveolar to arterial gradient versus saline control: similar
[4]
  Difference in WCC change, LTA-T vs saline: 4.70 (3.77)
